The values that follow come from patent publication EP0777471B1, “INHIBITION OF LEUKOTRIENE BIOSYNTHESIS WITH UREA DERIVATIVES” (MINNESOTA MINING AND MANUFACTURING COMPANY, priority 1994, dated 1996).

The test system of test [1] is production of Leukotriene B4. Kind of test: Rat ex vivo Leukotriene B4 inhibition (oral dosing, blood challenged with A23187). Format: in vivo, Rats. Conditions: two hours post dose. The procedure: The test method described below measures the ability of a compound when administered orally to rats to inhibit the production of Leukotriene B4 in their blood which is drawn and challenged.
Rats (CD, male, non-fasted, 250 g) are lightly anesthetized with carbon dioxide and an approximately 0.75 mL sample of whole blood is obtained via cardiac puncture. The sample is dispensed into 12 X 75 mm polypropylene tubes containing 8-10 µL of 10,000 units/mL heparin, mixed and then maintained on ice. The rats are allowed to recover approximately one hour then dosed orally with compound dissolved in PEG 400 at a 5 mL/Kg volume. Five (5) rats are utilized per group. Two (2) hours post dose the rats are again anesthetized with carbon dioxide and the blood sampled again via cardiac puncture.
Duplicate 200 µL portions of blood are added to 1.0 mL polypropylene tubes. A 10 µL portion of 1mM A23187 Calcium Ionophore in dimethyl sulfoxide/Tris buffer is added to each tube. The tubes are gently vortexed then incubated in a 37°C water bath for 30 minutes. The tubes are then centrifuged at 4000 rpm for 10 minutes. 50 µL portions of plasma are transferred to 1.0 mL tubes containing 200 µL of methanol. The tubes are vortexed then placed in the freezer overnight.
The tubes are removed from the freezer then centrifuged at 4000 rpm for 10 minutes. […] portions of the methanol/plasma supernatant and 10 µL methanol dilutions of LTB4 standard curve are transferred to 96 well v-bottom microtiter plates. The plates are vacuum dried at 40°C. A 40 µL portion of LTB4 radioimmunoassay buffer is added to each well. The plate is bath sonicated for 5 minutes then assayed according to the manufacturer's (Advanced Magnetics; Cambridge, MA) instructions. Percent inhibition values are obtained by comparing the level of LTB4 in the post-dose samples to the level in the pre-dose samples according to the equation below. % Inhibition =((LTB4 pre-dose) - (LTB4 post-dose))/((LTB4 pre-dose))X 100 [formula]

For test [2], the system named is production of Leukotriene B4 (LTB4). Kind of test: Dog ex vivo Leukotriene B4 inhibition (oral dosing, blood challenged with calcium ionophore). It is filed as in vivo, beagle dogs. Particulars: each entry one dog, negative = stimulation of LTB4 production; for % Inhibition 1 hour / % Inhibition 2 hour / % Inhibition 4 hour / % Inhibition 6 hour: 5 mg/Kg; for % Inhibition 4 hour: 4 hour post dose; for % Inhibition 6 hour: 6 hour post dose; for inhibition at 5 mg/kg: Canis lupus familiaris, po. As to the method: The test method described below measures the ability of a compound when administered orally to dogs to inhibit the production of Leukotriene B4 (LTB4) in their blood which is drawn and challenged at selected time points.
The test is conducted in beagle dogs (male and female; about 10 Kg). Prior to starting, the neck area of the beagle is shaved to allow easy access to the jugular vein. A 3-4 mL sample of blood is drawn from the jugular vein into a heparinized vacutainer. The dog is then dosed using a tube long enough to reach its stomach. The compound is dissolved in PEG 400 at a concentration such that the appropriate dose can be administered in approximately 5 mL. Immediately after the compound is given, a flush using 5 mL of vehicle is given to rinse the dosing tube. At selected time points following the dose, a 3-4 mL sample of blood is drawn.
The blood samples that have been drawn are challenged as soon as possible. A 0.5 mL portion of blood is aliquoted into 3 tubes (1 mL microtiter tubes). A 1 µL portion of 25 mM calcium ionophore in dimethyl sulfoxide is added to 2 of the tubes. A 1 µL portion of dimethyl sulfoxide is added to the third tube. The tubes are lightly mixed then placed in a 37°C water bath for 30 minutes. The tubes are centrifuged at 11,000 rpm for 3 minutes and the plasma supernatant is transferred to clean tubes. A 50 µL portion of this plasma is added to a I mL microtiter tube containing 200 µL of methanol. The tubes are placed in the freezer at -20°C for at least 1 hour then centrifuged at 2000 rpm for 10 minutes. A 10 µL portion of the methanol supematant is dried under vacuum at ambient temperature and then reconstituted in LTB4 buffer. The amount of LTB4 in the sample is determined by radioimmunoassay performed according to the manufacturer's (Advanced Magnetics; Cambridge, MA) instructions. Percent inhibition values are obtained by comparing the level of LTB4 in the post-dose sample to the level in the pre-dose sample according to the equation below. % Inhibition =((LTB4 predose) - (LTB4 postdose))/((LTB4 predose))X 100 [formula]
A number of the compounds that are useful in the practice of the method of the invention were tested. The results are shown in Table 15 below where each entry represents the results from one dog. A negative number indicates stimulation of LTB4 production. All compounds were tested at a dose of 5 mg/Kg.

Setting [3] is: 1 h, 1 hour post dose, read-out: % Inhibition 1 hour.
[4] abbreviates: 2 h, 2 hour post dose, read-out: % Inhibition 2 hour.

“And” between values parts separate entries of the source, which are not always exact repeats. Equal values may be shown once. Read-outs that look alike come from different tables or passages of the source.

As a reminder, the inhibition is the percentage by which the read-out fell short of the control.

`CCCCc1ccc(NC(=O)N(C)O)cc1` [Compound 12, 3-(4-butylphenyl)-1-hydroxy-1-methylurea]: the “%I” value in test [1] (50 mg/Kg) was 42%.

In the case of `CCCCc1ccc(NC(=O)N(O)C(C)C)cc1` [Compound 27, 3-(4-butylphenyl)-1-hydroxy-1-(1-methylethyl)urea], the “%I” value was 23% in test [1] (10 mg/Kg); 5% in test [1] (25 mg/Kg); 53% and 75% in test [1] (50 mg/Kg).

Consider `COc1ccc(OC)c(NC(=O)N(O)C(C)C)c1` [Compound 28, 3-(2,5-dimethoxyphenyl)-1-hydroxy-1-(1-methylethyl)urea], for which the “%I” value in test [1] (50 mg/Kg) amounted to 29%.

Take `COc1ccccc1NC(=O)N(O)C(C)C` [Compound 29, 1-hydroxy-3-(2-methoxyphenyl)-1-(1-methylethyl)urea]: in test [1] (50 mg/Kg), the “%I” value was found to be 61%.

For the compound `CCC(CC)N(O)C(=O)Nc1ccc(Br)cc1` [Compound 41, 3-(4-Bromophenyl)-1-(1-ethylpropyl)-1-hydroxyurea], the “%I” value in test [1] (50 mg/Kg) worked out at 14%.

`CCC(CC)N(O)C(=O)Nc1ccccc1` [Compound 42, 1-(1-Ethylpropyl)-1-hydroxy-3-phenylurea]: the “% Inhibition 1 hour” value in test [2] (1 hour post dose) is 98% and 100%. Moreover, the “% Inhibition 2 hour” value in test [2] (2 hour post dose) worked out at 100%. Besides, in test [2], the “% Inhibition 4 hour” value was 97% and 100% and -91%; the “% Inhibition 6 hour” value is 78% and 85% and 91% and -150%. The inhibition at 5 mg/kg in test [2] (setting [3]) turned out to be 99%. Besides, in test [2] (setting [4]), the inhibition at 5 mg/kg is 99%. Besides, in test [1] (50 mg/Kg), the “%I” value is on record as 4%.

In the case of `CCOCCN(O)C(=O)Nc1ccccc1` [Compound 45, 1-(2-ethoxyethyl)-1-hydroxy-3-phenylurea], the “%I” value in test [1] (50 mg/Kg) amounted to 6%.

Turning to `O=C(Nc1ccccc1)N(O)C1CCCC1` [Compound 46, 1-cyclopentyl-1-hydroxy-3-phenylurea], the “% Inhibition 1 hour” value in test [2] (1 hour post dose) is given as 77%. Moreover, the “% Inhibition 2 hour” value in test [2] (2 hour post dose) was 58%. In test [2], the “% Inhibition 4 hour” value is 11% and 2%; the “% Inhibition 6 hour” value was -23% and 46%. Moreover, in test [2] (setting [3]), the inhibition at 5 mg/kg was determined as 80%. Moreover, in test [2] (setting [4]), the inhibition at 5 mg/kg was 64%. For the same compound, the “%I” value in test [1] (50 mg/Kg) stood at 17%.

Turning to `CCCCC(CC)CN(O)C(=O)Nc1ccccc1` (centres unmarked) [Compound 47, 1-(2-ethylhexyl)-1-hydroxy-3-phenylurea], in test [1] (50 mg/Kg), the “%I” value came to 16%.

On to `CC(C)(C)CCN(O)C(=O)Nc1ccccc1` [Compound 48, 1-(3,3-dimethylbutyl)-1-hydroxy-3-phenylurea], for which the “%I” value in test [1] (50 mg/Kg) was 2%.

As for `CCCCCN(O)C(=O)Nc1ccc(CCCC)cc1` [Compound 57, 3-(4-Butylphenyl)-1-hydroxy-1-pentylurea], the “%I” value in test [1] (50 mg/Kg) was found to be 35%.

For the compound `CC(C)N(O)C(=O)Nc1cccc(S(C)(=O)=O)c1` [Compound 60, 1-Hydroxy-1-(1-methylethyl)-3-[3-(methylsulfonyl)phenyl]urea], the “% Inhibition 1 hour” value in test [2] (1 hour post dose) was 97%. The “% Inhibition 2 hour” value in test [2] (2 hour post dose) worked out at 52%. For the same compound, in test [2], the “% Inhibition 4 hour” value is -79% and 49%; the “% Inhibition 6 hour” value is -95% and 76%. Moreover, the inhibition at 5 mg/kg in test [2] (setting [3]) is 100%.

Consider `CC(C)N(O)C(=O)Nc1cccc([S+](C)[O-])c1` (centres unmarked) [Compound 61, 1-Hydroxy-1-(1-methylethyl)-3-[3-(methylsulfinyl)phenyl]urea], for which the “% Inhibition 2 hour” value in test [2] (2 hour post dose) is reported as 99%. For the same compound, in test [2], the “% Inhibition 4 hour” value was 29% and -2%. Also, in test [2], the “% Inhibition 6 hour” value is -32% and 22%. Besides, the inhibition at 5 mg/kg in test [2] (setting [3]) and in test [2] (setting [4]) was 100% in each case.

On to `CN(O)C(=O)Nc1ccc([S+](C)[O-])cc1` (centres unmarked) [Compound 64, 1-Hydroxy-1-methyl-3-[4-(methylsulfinyl)phenyl]urea], for which the “%I” value in test [1] (50 mg/Kg) worked out at 88%.

As to `CN(O)C(=O)Nc1ccc(S(C)(=O)=O)cc1` [Compound 65, 1-Hydroxy-1-methyl-3-[4-(methylsulfonyl)phenyl]urea], the “%I” value in test [1] (50 mg/Kg) came out at 93%.

On to `COc1cc(NC(=O)N(O)C(C)C)cc(OC)c1OC` [Compound 66, 1-Hydroxy-1-(1-methylethyl)-3-(3,4,5-trimethoxyphenyl)urea], for which, in test [1] (50 mg/Kg), the “%I” value was determined as 61%.
